Reference: the supplement of paper PMC10307832

Experiments:
Test in all cases: relative viability (nuclei count vs DMSO), 5 days (fraction); higher = more cells survive
QS11 + Trametinib = compound: C1CC2=C(C1)C=C(C=C2)OC3=NC(=C4C(=N3)N(C=N4)CC5=CC=C(C=C5)C6=CC=CC=C6)N[C@@H](CC7=CC=CC=C7)CO [QS11] + CC(=O)Nc1cccc(-n2c(=O)n(C3CC3)c(=O)c3c(Nc4ccc(I)cc4F)n(C)c(=O)c(C)c32)c1 [Trametinib] (partner 0.02 µM)
How it was run: (§1)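 Cells from lung cancer lines were seeded into 1536-well plates and, one day later, dosed by pin tool. Treatments were either a single drug or a fixed dose of an anchor drug with five library-drug doses (not always all listed) in √10 steps. After 5 days, nuclei were stained in a one-step fixation (final 0.05% Triton X-100, 1% formaldehyde, 1 ug/ml Hoechst) and counted on 4× images, and relative viability is the treated-to-vehicle nuclei ratio, as the median of duplicate plates.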

Darinaparsin + AZD7762 = compound: C[As](C)SC[C@H](NC(=O)CC[C@H](N)C(=O)O)C(=O)NCC(=O)O [Darinaparsin] + NC(=O)Nc1cc(-c2cccc(F)c2)sc1C(=O)N[C@H]1CCCNC1 [AZD7762] (partner 0.2 µM)
How it was run: as §1

AZ628 + Trametinib = compound: CC1=C(C=C(C=C1)NC(=O)C2=CC(=CC=C2)C(C)(C)C#N)NC3=CC4=C(C=C3)N=CN(C4=O)C [AZ628] + CC(=O)Nc1cccc(-n2c(=O)n(C3CC3)c(=O)c3c(Nc4ccc(I)cc4F)n(C)c(=O)c(C)c32)c1 [Trametinib] (partner 0.02 µM)
How it was run: as §1

Darinaparsin + Olaparib = compound: C[As](C)SC[C@H](NC(=O)CC[C@H](N)C(=O)O)C(=O)NCC(=O)O [Darinaparsin] + O=C(c1cc(Cc2n[nH]c(=O)c3ccccc23)ccc1F)N1CCN(C(=O)C2CC2)CC1 [Olaparib] (partner 8 µM)
How it was run: as §1

Cell Line | relative viability (QS11 + Trametinib; first compound 0.08 µM) | relative viability (QS11 + Trametinib; first compound 0.253 µM) | relative viability (QS11 + Trametinib; first compound 2.53 µM) | relative viability (QS11 + Trametinib; first compound 8 µM) | relative viability (Darinaparsin + AZD7762; first compound 0.08 µM) | relative viability (Darinaparsin + AZD7762; first compound 0.8 µM) | relative viability (Darinaparsin + AZD7762; first compound 2.53 µM) | relative viability (Darinaparsin + AZD7762; first compound 8 µM) | relative viability (AZ628 + Trametinib; first compound 0.08 µM) | relative viability (AZ628 + Trametinib; first compound 0.253 µM) | relative viability (AZ628 + Trametinib; first compound 0.8 µM) | relative viability (AZ628 + Trametinib; first compound 2.53 µM) | relative viability (AZ628 + Trametinib; first compound 8 µM) | relative viability (Darinaparsin + Olaparib; first compound 0.08 µM) | relative viability (Darinaparsin + Olaparib; first compound 0.8 µM) | relative viability (Darinaparsin + Olaparib; first compound 2.53 µM) | relative viability (Darinaparsin + Olaparib; first compound 8 µM) | relative viability (QS11 + Trametinib; first compound 0.8 µM)
NCI-H1944 | 0.423 | 0.4 | 0.349 | 0.353 | 0.469 | 0.518 | 0.527 | 0.427 | 0.321 | 0.305 | 0.254 | 0.295 | 0.33 | 0.458 | 0.44 | 0.363 | 0.404 | –
NCI-H322M | 0.547 | 0.543 | 0.582 | 0.513 | 0.585 | 0.42 | 0.488 | 0.518 | 0.473 | 0.511 | 0.489 | 0.536 | 0.617 | 0.763 | 0.763 | 0.713 | 0.726 | 0.565
LCLC-103H | 0.705 | 0.681 | 0.68 | 0.595 | 0.813 | 0.74 | 0.727 | 0.777 | 0.58 | 0.586 | 0.657 | 0.565 | 0.584 | 0.882 | 0.698 | 0.742 | 0.861 | –
A-427 | 0.778 | 0.78 | 0.805 | 0.767 | 0.696 | 0.681 | 0.747 | 0.589 | 0.462 | 0.407 | 0.353 | 0.395 | 0.407 | 0.71 | 0.8 | 0.787 | 0.791 | –
NCI-H1355 | 0.447 | 0.342 | 0.378 | 0.433 | 0.933 | 0.72 | 0.568 | 0.828 | 0.384 | 0.303 | 0.28 | 0.292 | 0.286 | 0.78 | 0.708 | 0.676 | 0.746 | 0.378
NCI-H2170 | 0.93 | 0.962 | 1.01 | 1.04 | 0.946 | 0.916 | 0.852 | 1.11 | 0.872 | 0.897 | 0.799 | 0.807 | 0.583 | 0.722 | 0.662 | 0.614 | 0.543 | 0.728
NCI-H1648 | 0.603 | 0.535 | 0.557 | 0.486 | – | 0.65 | – | 0.691 | 0.404 | 0.333 | 0.288 | 0.337 | 0.284 | – | 0.765 | – | 1.05 | 0.423
NCI-H1793 | 0.491 | 0.392 | 0.469 | 0.759 | 0.581 | 0.553 | – | 0.536 | 0.388 | 0.332 | 0.282 | 0.198 | 0.206 | 1 | 0.832 | – | 1.03 | 0.408
NCI-H2087 | 0.243 | 0.219 | 0.22 | 0.205 | 1.41 | 1.45 | 1.39 | 1.75 | 0.18 | 0.191 | 0.161 | 0.152 | 0.184 | 0.797 | 0.527 | 0.572 | 0.701 | 0.211
NCI-H2342 | 0.775 | 0.769 | 0.88 | 0.743 | 0.642 | 0.463 | 0.418 | 0.498 | 0.839 | 0.878 | 0.907 | 0.752 | 0.978 | 0.484 | 0.398 | 0.461 | 0.415 | 0.838
NCI-H596 | 0.776 | 0.755 | 0.683 | 0.706 | 1.23 | 1.13 | 0.98 | 1.25 | 0.779 | 0.711 | 0.622 | 0.786 | 0.756 | 0.634 | 0.675 | 0.667 | 0.774 | 0.692
NCI-H522 | 0.795 | 0.791 | 0.799 | 0.943 | 0.764 | 0.895 | 0.809 | 0.883 | 0.768 | 0.745 | 0.678 | 0.732 | 0.584 | 0.621 | 0.718 | 0.703 | 0.543 | 0.675
NCI-H1993 | 0.57 | 0.532 | 0.508 | 0.522 | 0.965 | 0.723 | 0.628 | 0.84 | 0.456 | 0.516 | 0.479 | 0.535 | 0.667 | 1.06 | 1.01 | 1.1 | 1.08 | 0.442
NCI-H1792 | – | 0.514 | 0.312 | 0.306 | 0.697 | 0.624 | – | 0.797 | 0.333 | 0.247 | 0.117 | 0.195 | 0.052 | 0.412 | 0.496 | – | 0.368 | 0.39
HOP-62 | 0.373 | 0.393 | 0.357 | 0.42 | 0.669 | 0.518 | 0.497 | 0.782 | 0.197 | 0.155 | 0.15 | 0.15 | 0.188 | 0.56 | 0.487 | 0.402 | 0.525 | 0.38
NCI-H1437 | 0.551 | 0.561 | 0.477 | 0.499 | 1.2 | 1.2 | 1.03 | 1.26 | 0.494 | 0.549 | 0.471 | 0.557 | 0.566 | 0.705 | 0.623 | 0.615 | 0.689 | 0.474
HCC-366 | 0.348 | 0.346 | 0.218 | 0.116 | 0.339 | – | 0.222 | 0.332 | 0.277 | 0.242 | 0.204 | 0.233 | 0.156 | 0.502 | – | 0.328 | 0.42 | –
NCI-H1755 | 0.747 | 0.755 | 0.681 | 0.618 | 0.595 | 0.428 | 0.735 | 0.475 | 0.63 | 0.604 | 0.483 | 0.561 | 0.305 | 0.915 | 0.774 | 0.848 | 0.899 | 0.54
